Molecules are shown by their SMILES.

The assay relates to angiotensin II type 1A receptor (AT1AR). The assay can be described thus: GRK2-C20 induced ligand-independent arrestinGFP translocation to the AT1AR in U2OS cells (INCell Analyzer). The format is cell-based. As to the method: U2OS cells stably expressing arrestinGFP and the angiotensin II type 1A receptor (AT1 AR) were transiently transduced with human GRK2-C20 using a baculovirus expression system. A range of GRK2-C20 expression levels was obtained by using varying amounts (serial dilution) of the GRK2-C20 baculovirus.
To test whether the ligand-independent arrestinGFP translocation could be blocked by an antagonist/inverse agonist of the AT1AR, the cells were treated with losartan. Losartan is a nonpeptide molecule that functions as an antagonist/inverse agonist of the AT1AR. Losartan (1 μM final concentration) was added to the cells either immediately after transduction for an 18 hour incubation or 15 hours after transduction for a 3 hour incubation. At the end of the incubation, the cells were analyzed for arrestinGFP translocation using the INCell Analyzer system.

In the case of `CCCCc1nc(Cl)c(CO)n1Cc1ccc(-c2ccccc2-c2nnn[nH]2)cc1` [losartan, Losartan], the “effect on ligand-independent translocation of arrestinGFP to the AT1AR induced by expression of GRK2-C20” value (losartan 1 μM final concentration, 3 hour or 18 hour incubation, U2OS cells stably expressing arrestinGFP and AT1AR) is “blocks the ligand-independent translocation of arrestinGFP to the AT1AR”. Also, the “inhibition of the ligand-independent translocation of arrestinGFP to the AT1AR” value (losartan 1 μM, 18 hour incubation, lower levels of GRK2-C20 expression (1:64, 1:128, and 1:256 dilutions of baculovirus)) is listed as “greater than 90%”.

Values taken from patent publication US7332292B2, “Constitutively translocating cell line” (priority 2002, dated 2008).
